{"source": "ChEMBL document CHEMBL5149973", "about": "“Agaricus bisporus-Derived Glucosamine Hydrochloride Facilitates Skeletal Injury Repair through Bmp Signaling in Zebrafish Osteoporosis Model” (J Nat Prod, 2021)", "key": {"[1]": {"test": "Induction of Zebrafish embryo skeletal development assessed as mortality rate of embryo at 0.01 % measured after 72 hrs post fertilization by Alcian blue staining based assay", "type": "functional, Danio rerio"}, "[2]": {"test": "Induction of Zebrafish embryo skeletal development assessed as mortality rate of embryo at 0.1 % measured after 72 hrs post fertilization by Alcian blue staining based assay", "type": "functional, Danio rerio"}, "[3]": {"test": "Induction of Zebrafish Larva cartilage development assessed as increase in H1 phenotype ratio at 0.1 % measured after 5 days post fertilization by Alcian blue staining based assay", "type": "functional, Danio rerio", "details": "time 5 day"}, "[4]": {"test": "Induction of Zebrafish Larva cartilage development assessed as increase in H2 phenotype ratio at 0.3 % measured after 5 days post fertilization by Alcian blue staining based assay", "type": "functional, Danio rerio", "details": "time 5 day"}, "[5]": {"test": "Induction of Zebrafish Larva cartilage development assessed as increase in bone mineralization at 0.3 % measured at 6 days post fertilization by Alizarin red staining based assay", "type": "functional, Danio rerio", "details": "time 6 day"}, "[6]": {"organism": "Danio rerio", "test": "Induction of Zebrafish embryo skeletal development assessed as upregulation of col10a1a gene expression in branchiostegal at 0.01 to 0.3 % measured after 72 hrs post fertilization by […] analysis", "type": "functional", "details": "dose 0.01-0.3 %"}, "[7]": {"organism": "Danio rerio", "test": "Induction of Zebrafish embryo skeletal development assessed as upregulation of col10a1a gene expression in head bone at 0.01 to 0.3 % measured after 72 hrs post fertilization by […] analysis", "type": "functional, tissue-based", "details": "dose 0.01-0.3 %"}, "[8]": {"test_system": "Osteoblast", "test": "Induction of osteoblast differentiation in Zebrafish embryo assessed as upregulation of runx2b gene expression in parasphenoid measured at 0.75 to 72 hrs post fertilization at 0.05 to 0.3 % by […] analysis", "type": "functional", "details": "Danio rerio, dose 0.05-0.3 %, time 0.75-72 hrs"}, "[9]": {"test_system": "Osteoblast", "test": "Induction of osteoblast differentiation in Zebrafish embryo assessed as upregulation of runx2b gene expression in operculum measured at 0.75 to 72 hrs post fertilization at 0.05 to 0.3 % by […] analysis", "type": "functional, tissue-based", "details": "Danio rerio, dose 0.05-0.3 %, time 0.75-72 hrs"}, "[10]": {"test_system": "Osteoblast", "test": "Induction of osteoblast differentiation in Zebrafish embryo assessed as upregulation of runx2b gene expression in head measured at 0.75 to 72 hrs post fertilization at 0.05 to 0.3 % by […] analysis", "type": "functional", "details": "Danio rerio, dose 0.05-0.3 %, time 0.75-72 hrs"}, "[11]": {"test_system": "Osteoblast", "test": "Induction of osteoblast differentiation in transgenic osx mCherry Zebrafish embryo assessed as increase in Col10a1a mRNA expression in fin at 0.1 % measured after 15 days by semiquantitative PCR analysis", "type": "functional", "details": "Danio rerio, time 15.0 day"}, "[12]": {"test_system": "Osteoblast", "test": "Induction of osteoblast differentiation in transgenic osx mCherry Zebrafish embryo assessed as increase in Col1a2 mRNA expression in fin at 0.1 % measured after 15 days by semiquantitative PCR analysis", "type": "functional, tissue-based", "details": "Danio rerio, time 15.0 day"}, "[13]": {"organism": "Danio rerio", "test": "Anti-osteoporosis activity in FAC-induced skeletal injury Zebrafish larvae assessed as rescue of bone damage measured for 10 day post fertilization by Alizarin red staining based assay", "type": "functional, organism-based", "details": "Larva"}, "[14]": {"organism": "Danio rerio", "test": "Anti-osteoporosis activity in FAC-induced skeletal injury Zebrafish larvae assessed as increase in Sox9b mRNA expression level measured for 10 day post fertilization by semiquantitative-PCR analysis", "type": "functional, organism-based", "details": "Larva"}, "[15]": {"organism": "Danio rerio", "test": "Anti-osteoporosis activity in FAC-induced skeletal injury Zebrafish assessed as rescue of skeletal density in head at 0.1 % measured for 10 day post fertilization", "type": "functional, organism-based"}, "[16]": {"organism": "Danio rerio", "test": "Anti-osteoporosis activity in FAC-induced skeletal injury Zebrafish assessed as rescue of skeletal density in spine at 0.1 % measured for 10 day post fertilization", "type": "functional, organism-based"}, "[17]": {"organism": "Danio rerio", "test": "Anti-osteoporosis activity in FAC-induced skeletal injury Zebrafish assessed as increase in cumulative bone optical density in caudal fins at 0.1 % measured for 10 day post fertilization", "type": "functional, organism-based"}, "[18]": {"organism": "Danio rerio", "test": "Induction of Zebrafish embryo skeletal development assessed as increase in Bmp2b mRNA expression level in gastrula stage at 0.05 to 0.1 % measured at 24 hrs post fertilization by ISH analysis", "type": "functional, tissue-based", "details": "dose 0.05-0.1 %"}, "[19]": {"organism": "Danio rerio", "test": "Induction of Zebrafish embryo skeletal development assessed as increase in Bmp7a mRNA expression level in gastrula stage at 0.05 to 0.1 % measured at 24 hrs post fertilization by ISH analysis", "type": "functional, tissue-based", "details": "dose 0.05-0.1 %"}, "[20]": {"organism": "Danio rerio", "test": "Induction of Zebrafish embryo skeletal development assessed as increase in Bmp4 mRNA expression level in bud region at 0.1 to 0.3 % measured at 24 hrs post fertilization by ISH analysis", "type": "functional, tissue-based", "details": "dose 0.1-0.3 %"}, "[21]": {"organism": "Danio rerio", "test": "Induction of Zebrafish embryo skeletal development assessed as increase in Smad1 gene expression level in spine at 0.1 % measured for 0.75 to 24 hrs post fertilization by ISH analysis", "type": "functional, tissue-based", "details": "time 0.75-24 hrs"}, "[22]": {"organism": "Danio rerio", "test": "Induction of Zebrafish embryo skeletal development assessed as increase in Smad5 gene expression level in head at 0.1 % measured for 0.75 to 24 hrs post fertilization by ISH analysis", "type": "functional, tissue-based", "details": "time 0.75-24 hrs"}, "[23]": {"organism": "Danio rerio", "test": "Induction of Zebrafish embryo skeletal development assessed as nuclear localization of p-Smad5 in head at 0.1 % measured at 24 to 72 hrs post fertilization by DAPI staining based analysis", "type": "functional, tissue-based", "details": "time 24-72 hrs"}, "[24]": {"organism": "Danio rerio", "test": "Induction of Zebrafish embryo skeletal development assessed as nuclear localization of p-Smad1 in tail at 0.1 % measured at 24 to 72 hrs post fertilization by DAPI staining based analysis", "type": "functional, tissue-based", "details": "time 24-72 hrs"}, "[25]": {"organism": "Danio rerio", "test": "Induction of Zebrafish embryo skeletal development assessed as nuclear localization of p-Smad5 in tail at 0.1 % measured at 24 to 72 hrs post fertilization by DAPI staining based analysis", "type": "functional, tissue-based", "details": "time 24-72 hrs"}, "[26]": {"organism": "Danio rerio", "test": "Induction of transgenic Zebrafish embryo skeletal development assessed as increase in GFP expression level in head at 0.05 to 0.3 % measured at 24 to 72 hrs post fertilization by DAPI staining based analysis", "type": "functional, tissue-based", "details": "dose 0.05-0.3 %, time 24-72 hrs"}, "[27]": {"organism": "Danio rerio", "test": "Induction of transgenic Zebrafish embryo skeletal development assessed as increase in GFP expression level in neural crest at 0.05 to 0.3 % measured at 24 to 72 hrs post fertilization by DAPI staining based analysis", "type": "functional, tissue-based", "details": "dose 0.05-0.3 %, time 24-72 hrs"}, "[28]": {"organism": "Danio rerio", "test": "Suppression of Bmp signaling in Zebrafish embryos assessed as decrease in sp7 gene expression level at 0.1 % measured at 26 hrs post fertilization by semiquantitative PCR analysis", "type": "functional, tissue-based", "details": "Embryo"}, "[29]": {"organism": "Danio rerio", "test": "Suppression of Bmp signaling in Zebrafish embryos assessed as decrease in Bmp2b gene expression level at 0.1 % measured at 26 hrs post fertilization by semiquantitative PCR analysis", "type": "functional, tissue-based", "details": "Embryo"}, "[30]": {"organism": "Danio rerio", "test": "Suppression of Bmp signaling in Zebrafish embryos assessed as decrease in Bmp4 gene expression level at 0.1 % measured at 26 hrs post fertilization by semiquantitative PCR analysis", "type": "functional, tissue-based", "details": "Embryo"}, "[31]": {"organism": "Danio rerio", "test": "Suppression of Bmp signaling in Zebrafish embryos assessed as decrease in Sox9b gene expression level at 0.1 % measured at 26 hrs post fertilization by semiquantitative PCR analysis", "type": "functional, tissue-based", "details": "Embryo"}, "[32]": {"organism": "Danio rerio", "test": "Suppression of Bmp signaling in Zebrafish embryos assessed as decrease in Col10a1a gene expression level at 0.1 % measured at 26 hrs post fertilization by semiquantitative PCR analysis", "type": "functional, tissue-based", "details": "Embryo"}, "[33]": {"organism": "Danio rerio", "test": "Suppression of Bmp signaling in mCherry Zebrafish embryos assessed as increase in colocalization in tail by measuring fluorescence intensity at 0.1 % measured at 36 hrs post fertilization", "type": "functional, organism-based", "details": "Embryo"}}, "note": "Active and inactive are the calls of the source. The calls are words filed in the database; no cut-off is given here.", "data": [{"smiles": "Cl.N[C@@H]1[C@@H](O)[C@H](O)[C@@H](CO)O[C@H]1O", "values": [{"measurement": "Activity", "setting": "[1]", "result": 12, "unit": "%"}, {"measurement": "Activity", "setting": "[2]", "result": 24, "unit": "%"}, {"measurement": "Activity", "setting": "[3]", "result": 40, "unit": "%"}, {"measurement": "Activity", "setting": "[4]", "result": 50, "unit": "%"}, {"measurement": "Activity", "setting": "[5]", "result": 79, "unit": "%"}, {"measurement": "Activity", "setting": "[6]", "result": "Active"}, {"measurement": "Activity", "setting": "[7]", "result": "Active"}, {"measurement": "Activity", "setting": "[8]", "result": "Active"}, {"measurement": "Activity", "setting": "[9]", "result": "Active"}, {"measurement": "Activity", "setting": "[10]", "result": "Active"}, {"measurement": "Activity", "setting": "[11]", "result": "Active"}, {"measurement": "Activity", "setting": "[12]", "result": "Active"}, {"measurement": "Activity", "setting": "[13]", "result": "Active"}, {"measurement": "Activity", "setting": "[14]", "result": "Active"}, {"measurement": "Activity", "setting": "[15]", "result": "Active"}, {"measurement": "Activity", "setting": "[16]", "result": "Active"}, {"measurement": "Activity", "setting": "[17]", "result": "Active"}, {"measurement": "Activity", "setting": "[18]", "result": "Active"}, {"measurement": "Activity", "setting": "[19]", "result": "Active"}, {"measurement": "Activity", "setting": "[20]", "result": "Active"}, {"measurement": "Activity", "setting": "[21]", "result": "Active"}, {"measurement": "Activity", "setting": "[22]", "result": "Active"}, {"measurement": "Activity", "setting": "[23]", "result": "Active"}, {"measurement": "Activity", "setting": "[24]", "result": "Active"}, {"measurement": "Activity", "setting": "[25]", "result": "Active"}, {"measurement": "Activity", "setting": "[26]", "result": "Active"}, {"measurement": "Activity", "setting": "[27]", "result": "Active"}, {"measurement": "Activity", "setting": "[28]", "result": "Active"}, {"measurement": "Activity", "setting": "[29]", "result": "Active"}, {"measurement": "Activity", "setting": "[30]", "result": "Active"}, {"measurement": "Activity", "setting": "[31]", "result": "Active"}, {"measurement": "Activity", "setting": "[32]", "result": "Active"}, {"measurement": "Activity", "setting": "[33]", "result": "Active"}]}]}
